Results reported in patent publication US9006185B2, “Use of cell-permeable peptide inhibitors of the JNK signal transduction pathway for the treatment of various diseases” (Xigen Inflammation Ltd., priority 2008, dated 2015).
Entries after “also recorded” stand apart in the source; their conditions may differ.

What was measured:
[1] = test system: C57BL/6 mice; test: Bleomycin induced lung fibrosis; format: in vivo; conditions: for histology: inflammatory cells accumulation, fibrotic areas, loss of lung architecture: day 10
Excerpt: (§1) In order to determine the activity of the exemplary all-D retro-inverso IB(s) peptide XG-102 (SEQ ID NO: 11) in the treatment of Chronic Obstructive Pulmonary Disease (COPD) XG-102 (SEQ ID NO: 11) is used in an animal model of Bleomycin induced acute lung inflammation and fibrosis. The protocol of bleomycin induced inflammation and fibrosis has been described before in the literature. The aim of the Experiment was to investigate the effect of XG-102 (SEQ ID NO: 11) by subcutaneous (s.c.) route on neutrophil recruitment in broncho alveolar lavage (BAL) and lung in bleomycin induced inflammation and fibrosis: • at 1 day after a single bleomycin administration (10 mg/kg) • and at day 10 with the development of fibrosis 1) Method and Experimental Approach • The test compound XG-102 (SEQ ID NO: 11) at two doses and vehicle control were given s.c. with a single intranasal administration of bleomycin and mice were analyzed after 1 and 10 days. The animals used in the model were 10 C57BL/6 mice (8 weeks old) per group. The experimental groups included vehicle, 0.001 mg/kg XG-102 (SEQ ID NO: 11) and 0.1 mg/kg XG-102 (SEQ ID NO: 11), and the treatment consisted of repeated sub-cutaneous administration of XG-102 (SEQ ID NO: 11), prior to bleomycin administration then every 3 days. Acute lung inflammation at 24 h was monitored by BAL lavage, cytology, cell counts, and lung myeloperoxidase activity. The effect of the compound was compared with vehicle controls. Lung fibrosis was assessed histologically using hematoxylin and eosin staining at day 10 after the single dose of bleomycin. […] 1.4) Cell Count and Determination • Total cell count was determined in BAL fluid using a Malassez hemocytometer. […] 1.5) TNF Measurement • TNF level in BALF was determined using ELISA assay kits (Mouse DuoSet, R&D system, Minneapolis, USA) according to manufacturer's instructions. […] 1.6) MPO-Measurement • MPO-levels were measured upon administration of XG-102. […]

[2] = test system: C57BL/6 mice; test: Bleomycin induced acute lung inflammation; format: in vivo
Excerpt: as §1, with “bleomycin. 1.1) Bleomycin Administration • Bleomycin sulfate in saline (10 mg/kg body weight) from Belton Laboratories (Montrouge, France) or saline were given through the airways by nasal instillation in a volume of 40 μL under light ketamine-xylasine anesthesia. The groups for Bleomycin administration for both bleomycin induced inflammation and fibrosis included: Vehicle, 0.001 mg/kg XG-102 (SEQ ID NO: 11) and 0.1 mg/kg XG-102 (SEQ ID NO: 11). The route for bleomycin induced inflammation was subcutaneous (s.c.) route, and administration occurred as a single dose. The route for bleomycin induced fibrosis was subcutaneous (s.c.) route, and administration occurred 3 times in 10 days. 1.2) Bronchioalveolar Lavage Fluid (BAL F) • After incision of the trachea, a plastic cannula was inserted and airspaces were washed using 0.3 ml of PBS solution, heated to 37° C. The samples collected were dispatched in 2 fractions: the first one (1 ml corresponding to the 2 first lavages) was used for mediator measurement and the second one for the cell determination (4 ml). The first fraction was centrifuged (600 g for 10 min) and supernatant was fractionated and kept at −80° C. until mediator determination. The cell pellet was then resuspended in 0.4 ml sterile NaCl, 0.9%, and pooled with the second fraction and was used for cell counts.” for “bleomycin.”

## CC(C)C[C@@H](NC(=O)[C@@H](Cc1ccccc1)NC(=O)[C@H]1CCCN1C(=O)[C@@H](CCC(N)=O)NC(=O)[C@H](NC(=O)[C@H]1CCCN1C(=O)[C@@H](CCCNC(=N)N)NC(=O)[C@@H](CO)NC(=O)[C@@H](CCC(N)=O)NC(=O)[C@H](N)CC(=O)O)C(C)C)C(=O)N[C@H](CC(N)=O)C(=O)N[C@H](CC(C)C)C(=O)N[C@@H](C(=O)N[C@@H](C(=O)N1CCC[C@@H]1C(=O)N[C@H](CCCNC(=N)N)C(=O)N[C@H](CCCCN)C(=O)N1CCC[C@@H]1C(=O)N[C@H](CCCNC(=N)N)C(=O)N1CCC[C@@H]1C(=O)N1CCC[C@@H]1C(=O)N[C@H](CCCNC(=N)N)C(=O)N[C@H](CCCNC(=N)N)C(=O)N[C@H](CCCNC(=N)N)C(=O)N[C@H](CCC(N)=O)C(=O)N[C@H](CCCNC(=N)N)C(=O)N[C@H](CCCNC(=N)N)C(=O)N[C@H](CCCCN)C(=O)N[C@H](CCCCN)C(=O)N[C@H](CCCNC(=N)N)C(=O)NCC(=O)O)[C@H](C)O)[C@H](C)O [XG-102]
[1]; 0.001 mg/kg s.c., 3 times in 10 days
  lymphocyte recruitment and total cells in bronchioalveolar lavage space: reduced significantly the lymphocyte recruitment and the number of total cells recruited
[1]; high dose 0.1 mg/kg
  histology: inflammatory cells accumulation, fibrotic areas, loss of lung architecture: not with the high dose
[1]; low dose 0.001 mg/kg, 0.001 mg/kg
  histology: inflammatory cells accumulation, fibrotic areas, loss of lung architecture: A decrease of these parameters was observed; also recorded: attenuates the Bleomycin-induced fibrosis
[2]; 0.001 mg/kg s.c., single dose, 1 day
  neutrophil recruitment and other cell types in bronchioalveolar space: has no effect on neutrophil recruitment or other cell types
[2]; 0.1 mg/kg s.c., single dose, 1 day
  neutrophil recruitment and total cells in bronchioalveolar lavage space: reduces significantly the neutrophil recruitment and the number of total cells recruited
[2]; acute inflammation study
  histology, inflammatory cell accumulation: a decrease of the inflammatory cell accumulation in the peribronchial space
[2]; s.c., MPO not significantly induced after bleomycin
  MPO levels in the lung: only little effect on the MPO levels in the lung; also recorded: no effect on the MPO levels in the lung
[2]; s.c., TNF levels very low after BLM
  TNF level in BALF: a trend to reduction of the TNF level in BALF
